Data taken from PubChem BioAssay AID2060626 (Molecular Pharmacology Branch, DTP, NCI, 2025).
Where “and” joins values, the source holds several entries; their conditions need not be identical. Equal values may be shown once.

System: 168753-222-R-J1-PDC complex spheroid viability
Assay: Anticancer human tumor 168753-222-R-J1-PDC patient-derived bladder carcinoma cell line growth inhibition [CLK]
Details: for viability, T/C: stronger effect = lower value
Text: A high-throughput screen of multi-cell type tumor spheroids was designed to identify active combinations of […] and targeted small molecules. Complex spheroids include a stromal component modeled by human endothelial cells (HUVEC) and fibroblasts modeled by human mesenchymal stem cells (MSCs). The concentration ranges selected for each drug and investigational agent were based upon clinically achievable concentrations if the clinical Cmax of the agent was known.
Compounds. The drugs and investigational agents: cirtuvivint (SM08502; NSC835563), CC-671 (NSC850746), vemurafenib (NSC761431), tapotoclax (NSC804041), sotorasib (NSC818433), adagrasib (NSC831453), MRTX-1133 (NSC836407), BAY2416964 (NSC825713), copanlisib (NSC816437), inavolisib (NSC800729), abemaciclib (NSC768073), osimertinib (NSC779217), entinostat (NSC756642), eltanexor (KPT-8602, NSC794443), venetoclax (NSC766270), ceralasertib (NSC777638), bortezomib (NSC756655), olaparib (NSC753686), talazoparib (NSC767125), alisertib (NSC759677), peposertib (NSC802822), gemcitabine (NSC613327), 5-fluorouracil (NSC19893), SN-38 (NSC673596), oxaliplatin (NSC266046), paclitaxel (NSC125973), and doxorubicin (NSC123127), were obtained from the National Cancer Institute (NCI) Developmental Therapeutics Program Chemical Repository. The FDA-approved anticancer drug set is available from the Developmental Therapeutics Program at https://dtp.cancer.gov/organization/dscb/obtaining/available plates.htm. […] The stock solutions were prepared in dimethyl sulfoxide (DMSO, Sigma-Aldrich, St. Louis, MO, cat. D2650), except for the platinum complexes which were prepared in saline (Quality Biological, Gaithersburg, MD, cat. 114-055-101), at 800-fold the tested concentration and stored at -70 degrees C prior to their use. All drugs and investigational agents were tested over a range starting from a high concentration at or near the clinical Cmax and decreasing in half-log increments. If the clinical Cmax for an agent had not been determined, the highest concentration tested was 10 microM.
Cell Culture. All cells were maintained in an incubator at 37 degrees C and 5% CO2 with 95% humidity. The PDC lines were cultured according to standard operating procedures established by the NCI PDMR. Briefly, all PDCs were thawed and cultured in Matrigel-coated flasks prepared with a working solution of 1X Ham's F-12 nutrient mix, without supplementation (Invitrogen, Waltham, MA, cat. 11765054), 100 U/mL penicillin-streptomycin (Invitrogen, cat. 15140122), and 2.5% Matrigel (Corning Inc., Corning, NY, cat. 354248) for the first three passages. The 947758-054-R-J2-PDC line was cultured in 6B/Colon 1A media, which includes advanced DMEM/F-12 (Thermo Fisher Scientific, cat. 12634028), 10 mM HEPES (Thermo Fisher Scientific, cat. 15630080), 1X GlutaMAX supplement (Thermo Fisher Scientific, cat. 35050061), 0.1 mg/mL primocin (InvivoGen, cat. ant-pm-2), 10% defined fetal bovine serum, heat inactivated (HyClone Laboratories Inc., cat. SH30070.03HI), 1.25 mM N-Acetyl-L-cysteine (Sigma-Aldrich, cat. A9165), 10 mM nicotinamide (Sigma-Aldrich, cat. N0636), 1X B-27 supplement (Thermo Fisher Scientific, cat. 17504044), 1X N-2 supplement (Thermo Fisher Scientific, cat. 17502048), and 10 microM Y-27632 dihydrochloride (Tocris Bioscience, cat. 1254). The 876862-298-R-J1-PDC was cultured in 6E media, which includes all 6B/Colon 1A media components plus 50% L-WRN conditioned media (ATCC, cat. CRL-3276), 50 ng/mL recombinant human EGF recombinant protein (hEGF; Thermo Fisher Scientific, cat. PHG0311), 10 ng/mL recombinant human fibroblast growth factor 10 (hGFG-10; PeproTech, cat. 100-26), 1 ng/mL recombinant human fibroblast growth factor 2 (hFGF-2; PeproTech, cat. 100-18B), and 1 µM prostaglandin E2 (PGE2; Tocris, cat. 2296). The 227483-062-R1-J1-PDC line was cultured in Panc media, containing all 6E components except hFGF-2, with the addition of 500 nM SB-431542 (Selleckchem, cat. S1067) and 10 nM gastrin (Tocris, cat. 3006). […]
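Also: viability measured after seven days of drug exposure.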
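For viability, T/C in this document: luminescence signal used as surrogate for viable cell amount; 100% = DMSO vehicle control wells.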

IC50 (curve of compound) | Structure (SMILES) | viability, T/C (compound 0.0316 µM) | viability, T/C (compound 0.1 µM) | viability, T/C (compound 0.316 µM) | viability, T/C (compound 1 µM) | viability, T/C (compound 3.16 µM) | viability, T/C (compound 10 µM) | also measured
> 10000 nM | C#Cc1c(F)ccc2cc(O)cc(-c3ncc4c(N5CC6CCC(C5)N6)nc(OCC56CCCN5CC(F)C6)nc4c3F)c12 (centres undefined) | 107% and 94.2% | 103% and 96.3% | 99.5% and 107% | 103% and 97.3% | 89.2% and 66.9% | 80.6% and 52.9% | 
> 10000 nM and 4650 nM | C=C(F)C(=O)N1CCN(c2nc(OCC3CCCN3C)nc3c2CCN(c2cccc4cccc(Cl)c24)C3)CC1CC#N (centres undefined) | 99.3% and 97.7% | 93.6% and 102% | 91.3% and 87.2% | 95.6% and 87.8% | 93.2% and 67.9% | 70.9% and 16.5% | 
> 10000 nM | C=CC(=O)N1CCN(c2nc(=O)n(-c3c(C)ccnc3C(C)C)c3nc(-c4c(O)cccc4F)c(F)cc23)C(C)C1 (centres undefined) | 91% and 86.6% | 111% and 92.8% | 101% and 92.3% | 110% and 103% | 106% and 121% | 103% and 74.9% | 
> 300 nM | C=CC(=O)Nc1cc(Nc2nccc(-c3cn(C)c4ccccc34)n2)c(OC)cc1N(C)CCN(C)C |  |  |  |  |  |  | viability, T/C (compound 0.000949 µM): 111% and 100%; viability, T/C (compound 0.003 µM): 108% and 99.8%; viability, T/C (compound 0.00949 µM): 97.8% and 98.2%; viability, T/C (compound 0.03 µM): 98% and 106%; viability, T/C (compound 0.0949 µM): 103% and 106%; viability, T/C (compound 0.3 µM): 89.4% and 103%
< 31.6 nM | CC(=O)O[C@H]1C(=O)[C@@]2(C)[C@H]([C@H](OC(=O)c3ccccc3)[C@]3(O)C[C@H](OC(=O)[C@H](O)[C@@H](NC(=O)c4ccccc4)c4ccccc4)C(C)=C1C3(C)C)[C@]1(OC(C)=O)CO[C@@H]1C[C@@H]2O | 22.5% and 55.4% | 10.6% and 32.8% | 11.2% and 23.4% | 12.6% and 36.7% | 16% and 32.8% | 20.1% and 42.8% | 
2.11 nM and 2.62 nM | CC(C)CC(NC(=O)C(Cc1ccccc1)NC(=O)c1cnccn1)B(O)O (centres undefined) |  |  |  |  |  |  | viability, T/C (compound 0.000949 µM): 84.2% and 86.5%; viability, T/C (compound 0.003 µM): 34.9% and 45.1%; viability, T/C (compound 0.00949 µM): 0.64% and 3.31%; viability, T/C (compound 0.03 µM): 1.34% and 1.82%; viability, T/C (compound 0.0949 µM): 0.77% and 0.3%; viability, T/C (compound 0.3 µM): 0.23% and 0.22%
> 10000 nM | CC(CO)NC(=O)c1cc(-c2ccc(Cl)cc2)nn(-c2cnn(C)c2)c1=O (centres undefined) | 105% and 101% | 105% and 90.6% | 94.4% and 95.7% | 94.6% and 100% | 92.7% and 107% | 89.6% and 82.1% | 
88.9 nM and 161 nM | CC(Nc1ccc2c(c1)OCCn1cc(N3C(=O)OCC3C(F)F)nc1-2)C(N)=O (centres undefined) | 86.9% and 78.6% | 45.8% and 69.2% | 20.7% and 22.8% | 13.3% and 18.8% | 10.3% and 13.1% | 11% and 14.8% | 
3550 nM and 6370 nM | CC1(C)CCC(CN2CCN(c3ccc(C(=O)NS(=O)(=O)c4ccc(NCC5CCOCC5)c([N+](=O)[O-])c4)c(Oc4cnc5[nH]ccc5c4)c3)CC2)=C(c2ccc(Cl)cc2)C1 | 87% and 96.7% | 97% and 94.3% | 74% and 113% | 112% and 102% | 54.4% and 93.3% | 10.7% and 22% | 
3110 nM and > 10000 nM | CC1COCCN1c1cc(C2(S(C)(=N)=O)CC2)nc(-c2ccnc3[nH]ccc23)n1 (centres undefined) | 93.5% and 106% | 67% and 101% | 84.1% and 104% | 75.9% and 102% | 49.7% and 87.8% | 26.7% and 56.4% | 
> 10000 nM | CCCS(=O)(=O)Nc1ccc(F)c(C(=O)c2c[nH]c3ncc(-c4ccc(Cl)cc4)cc23)c1F | 91.7% and 104% | 108% and 107% | 103% and 113% | 132% and 115% | 120% and 118% | 71.7% and 76.3% | 
 | CCN1CCN(Cc2ccc(Nc3ncc(F)c(-c4cc(F)c5nc(C)n(C(C)C)c5c4)n3)nc2)CC1 | 37.7% and 78.4% | 44.1% and 77.1% | 25.1% and 68.1% | 36.4% and 64.2% |  |  | viability, T/C (compound 0.00316 µM): 97.4% and 95.4%; viability, T/C (compound 0.01 µM): 80.3% and 94%
 | CCc1c2c(nc3ccc(O)cc13)-c1cc3c(c(=O)n1C2)COC(=O)[C@]3(O)CC | 31.5% and 79.7% | 32.8% and 59.9% | 15.3% and 52.8% | 12% and 15.8% |  |  | viability, T/C (compound 0.00316 µM): 86.5% and 95.1%; viability, T/C (compound 0.01 µM): 49.5% and 86.4%
 | CNC(=O)c1ccc(Nc2nc(OC3CCCC3)c3c(-c4ccc5nc(C)oc5c4)c[nH]c3n2)c(OC)c1 | 101% [middle of 12 runs] | 99.3% [middle of 12 runs] |  | 45.1% [middle of 12 runs] | 33.5% [middle of 12 runs] | 23.6% [middle of 12 runs] | IC50 (compound alone, run of 08/01/2023): 900 nM [middle of 12 runs]
1100 nM and 2930 nM | COC1C=CCC(C)C(C)S(=O)(=O)NC(=O)c2ccc3c(c2)N(CC2CCC21)CC1(CCCc2cc(Cl)ccc21)CO3 (centres undefined) | 88.5% and 107% | 98.9% and 95.5% | 61.2% and 104% | 53.9% and 76% | 35.8% and 49.4% | 20.4% and 19% | 
6.47 nM and 8.95 nM | COc1c(OCCCN2CCOCC2)ccc2c3n(c(=NC(=O)c4cnc(N)nc4)nc12)CCN3 | 10.2% and 17% | 13.6% and 15.3% | 7.59% and 8.3% | 2.26% and 3.63% |  |  | viability, T/C (compound 0.00316 µM): 59.7% and 74.2%; viability, T/C (compound 0.01 µM): 44.1% and 48.3%
> 100 nM | Cn1ncnc1[C@H]1c2n[nH]c(=O)c3cc(F)cc(c23)N[C@@H]1c1ccc(F)cc1 | 74.9% and 108% | 55.2% and 91.6% |  |  |  |  | viability, T/C (compound 0.000316 µM): 82.2% and 103%; viability, T/C (compound 0.001 µM): 97% and 99.6%; viability, T/C (compound 0.00316 µM): 70% and 106%; viability, T/C (compound 0.01 µM): 87.6% and 108%
 | NC(=O)C(=Cn1cnc(-c2cc(C(F)(F)F)cc(C(F)(F)F)c2)n1)c1cncnc1 |  |  |  |  |  |  | viability, T/C (compound 0.00949 µM): 102% and 101%; viability, T/C (compound 0.03 µM): 76% and 95.7%; viability, T/C (compound 0.0949 µM): 52.8% and 83.2%; viability, T/C (compound 0.3 µM): 48.1% and 84.1%; viability, T/C (compound 0.949 µM): 41.1% and 68.7%; viability, T/C (compound 3 µM): 26.5% and 52%
763 nM and 4400 nM | Nc1ccccc1NC(=O)c1ccc(CNC(=O)OCc2cccnc2)cc1 | 62.3% and 96.6% | 73.6% and 91.6% | 60.1% and 85.8% | 37.7% and 86.4% | 38.6% and 60.3% | 11.8% and 22.8% | 
 | Nc1ccn(C2OC(CO)C(O)C2(F)F)c(=O)n1 (centres undefined) | 57.8% and 83.1% | 24.7% and 60.2% | 18% and 50.2% | 23.2% and 52.5% | 26.2% and 46.9% | 21.6% and 37.8% | 
> 10000 nM | O=C(c1cc(Cc2n[nH]c(=O)c3ccccc23)ccc1F)N1CCN(C(=O)C2CC2)CC1 | 76.1% and 102% | 97.4% and 102% | 93.7% and 95.2% | 62% and 95.9% | 46.3% and 107% | 70.3% and 93.2% | 
> 10000 nM | O=c1[nH]cc(F)c(=O)[nH]1 | 93.5% and 101% | 102% and 107% | 88% and 104% | 109% and 112% | 67.9% and 113% | 53.5% and 93.2% | 
